Experimental data published in patent US6492329B1, “Cytokine and hemopoietic factor endogenous production enhancer and methods of use thereof” (Novelos Therapeutics, Inc., priority 1995, dated 2002).

Tests used:
normal human lymphocytes = experiment: Proliferation/apoptosis of normal human lymphocytes (cell number per well, flow cytofluorometry); format: cell-based
[1] = system: rat embrional fibroblasts (REF); experiment: Number of REF cells throughout 72-hr incubation; format: cell-based
Procedure: (§1) To this end, these substances had been incubated for 72 hours with cells of rat embrional fibroblasts (REF) and the same cells, transformed with adenoviral E1A gene in complementation with ras-oncogene (e-ras cell line). Subsequent evaluation of the cellularity of experimental samples was carried out by counting the quantity of cell per milliliter (for REF cell line) or clones in dish (for e-ras cell line).
(§2) Cells were cultivated on DMEM medium supplemented with 10% fetal calf serum and […] gentamicin. Cultivation was carried out in Petri dishes.
(§3) REF cells was cultivated with initial density of 800 000 cell per mL, evaluation of the cellularity was performed at 0, 24, 48 and 72 hours of incubation with the test articles.
(§4) For the test-system for estimation of apoptosis regulation UV-induced cell death was triggered in a dose of 4 Dj. Test articles were added immediately after irradiation. Then, the quantity of cell per milliliter (for REF cell line) or clones in dish (for e-ras cell line) were monitored every 24 hours. For determination of DNA-fragmentation the electrophoresis in agarose gel was used at standard settings.

[2] = system: e-ras cell line (REF transformed with E1A and ras-oncogene); experiment: Number of clones of e-ras cells throughout 72-hr incubation; format: cell-based, rat
Procedure: as §1, §2
(§5) E-ras cells were seeded at a cell density of 300 cells per 5 cm dish. 7 days after growth of e-ras cells had been started the quantity of clones was evaluated and the test articles were added into the dishes.
as §4

[3] = system: rat embrional fibroblasts (REF) after UV-irradiation; experiment: Number of REF cells after UV-irradiation; format: cell-based
Procedure: as §1, §2, §3, §4

[4] = system: e-ras cells after UV-irradiation; experiment: Number of clones of e-ras cells after UV-irradiation; format: cell-based, rat
Procedure: as §1, §2, §5, §4

leukemia P388 cells [5] = experiment: Leukemia P388 in mice: ascitic fluid and survival (Example 14); settings: for Accumulation of ascitic (weight gain, %): leukemia P388
Procedure: (§6) An influence of 7 day course of test article daily administration was studied in respect of tumor progression, which was estimated using the two integral indices: pace of mouse weight gain due to accumulation of ascitic fluid, and by animal mean survival time after inoculation.
(§7) The study was carried out on DBA/2 mice weighing 18-21 g. First, tumor cell passage was performed using 6 animals for each cell line. For this, cells kept at the temperature of the liquid nitrogen were de-frozen and adjusted to the concentration of 5×10^6 cells/mL by sterile Hanks' solution. Then, 6 mice were intra peritoneally inoculated with 0.2 mL of each line cellular suspension.
(§8) Ascitic fluid was collected 6 days after the inoculation with L1210 cells, 8 days after the inoculation with P388 ones and 18 days after inoculation with Erlich adenocarcinoma cells. Thus obtained, the samples of passaged tumor cells were used for the main experiments. The fluid liquid was dissolved by sterile Hanks' solution so that cell concentration be 5×10^6 cells/mL for P388 cells and Erlich adenocarcinoma cells, 5×10^5 cells/mL for L1210 cells.
(§9) Eleven groups of animals with no less than 15 mice each were formed for experiments with either tumor cell line. Mice were inoculated with 0.2 mL of resultant cell suspensions per mouse (10^6 P388 and Erlich adenocarcinoma cells/mouse, and 10^5 L1210 cells/mouse). 24 hours after the tumor cells inoculation, animals were given the first injections of the test articles or vehicles. The test article injections were made daily till the 14th day of the experiment or till the animal death. The volume of solutions injected comprised 0.01 mL/g body weight.
(§10) #1—intact animals receiving imitation of tumor cell inoculation (injection of normal saline) which further were treated with normal saline throughout the entire experiment;
(§11) #2—control animals, inoculated with tumor cells, which further were treated with test article vehicle (normal saline);

leukemia L1210 cells [6] = experiment: Leukemia L1210 in mice: ascitic fluid and survival (Example 14); settings: for Accumulation of ascitic (weight gain, %): leukemia L1210
Procedure: as §6, §7, §8, §9, §10, §11

[7] = system: Erlich adenocarcinoma cells; experiment: Erlich adenocarcinoma in mice: ascitic fluid and survival (Example 14); settings: for Accumulation of ascitic (weight gain, %): Erlich adenocarcinoma
Procedure: as §6, §7, §8, §9, §10, §11

leukemia P388 cells [8] = experiment: Leukemia P388 in mice: serum cytokines, ascitic fluid, survival (Example 5); settings: for Accumulation of ascitic fluid (weight gain) / Concentration in serum: IFNα / Concentration in serum: IL-1 / Concentration in serum: IL-2 / Concentration in serum: IL-6 / Concentration in serum: TNFα: P388 mice
Procedure: (§12) An influence of 7 day course of test article daily administration was studied in respect of variations of serum cytokine levels (IL-1, IL-2, IL-6, IFNα, TNF). In parallel, the tumor progression was estimated using the two integral indices: pace of mouse weight gain due to accumulation of ascitic fluid, and by animal mean survival time after inoculation.
(§13) The study was carried out on DBA/2 mice weighing 18-21 g. First, tumor cell passage was performed using 6 animals for each cell line. For this, cells kept at the temperature of the liquid nitrogen were de-frozen and adjusted to the concentration of 5×10^6 cells/mL by sterile Hanks' solution. Then, 6 mice were intraperitoneally inoculated with 0.2 mL of each line cellular suspension.
(§14) Ascitic fluid was collected 6 days after the inoculation with L1210 cells and 8 days after the inoculation with P388 ones. Thus obtained, the samples of passaged tumor cells were used for the main experiments. The fluid liquid was dissolved by sterile Hanks' solution so that cell concentration be 5×10^6 cells/mL for P388 cells and 5×10^5 cells/mL for L1210 cells.
(§15) Nine groups of animals with no less than 15 mice each were formed for experiments with either tumor cell line. Mice were inoculated with 0.2 mL of resultant cell suspensions per mouse (10^6 P388 cells/mouse, and 10^5 L1210 cells/mouse). 24 hours after the tumor cells inoculation. animals were given the first injections of the test articles or vehicles. The test article injections were made daily till the 14th day of the experiment or until the animal's death. The volume of solutions injected comprised 0.01 mL/g body weight.
as §10, §11

leukemia L1210 cells [9] = experiment: Leukemia L1210 in mice: serum cytokines, ascitic fluid, survival (Example 5); settings: for Accumulation of ascitic fluid (weight gain) / Concentration in serum: IFNα / Concentration in serum: IL-1 / Concentration in serum: IL-2 / Concentration in serum: IL-6 / Concentration in serum: TNFα: L1210 mice
Procedure: as §12, §13, §14, §15, §10, §11

HL-60 cells = experiment: Proliferation/apoptosis of HL-60 tumor cells (cell number per well, flow cytofluorometry)
Procedure: Subsequent evaluation of the cell cycle parameters was carried out by the flow cytofluorometry technique.
A mononuclear fraction of blood leukocytes were obtained by centrifugation in gradient of fikoll-metrizoat (Histopaque, Sigma). […] Cell viability was estimated by the Trypan blue exclusion method, then the cell suspension was placed into wells of 96-well microtiter plates—200,000 cells per well. […] Cultivation was carried out in closed flasks, the medium volume was 12 mL, it was changed every four days by centrifugation. The nature of the cells growth was suspensive. […] 50 μL of each test solution were added to one or the other cell culture and thereafter cells were cultivated for 24-96 hours. Then, they were tested by the flow cytofluorometry to estimate DNA content in the cell nuclei. In case of apoptosis-like cellular death, the portion of cell nuclei with normal content of DNA became reduced, while the portion of cell nuclei containing abnormally small DNA quantity became larger.
The analysis procedure was the following: after incubation completion, cells were centrifuged and transferred to a standard phosphate isotonic buffer pH 7.4, containing RNA-ase A (20 μg/mL), ethidium bromide (fluorometric indicator for double stranded nucleic acid. 10 μg/mL) and MgCl2 (5 mM). After the cells were disintegrated by nonionic detergent Triton X-100 (final concentration 0.1%). The suspension of cell nuclei thus obtained was analyzed by flow cytofluorometry with an argon laser as a source of light (wave length 488 nm). The red fluorescence due to DNA bound ethidium bromide was taken to be the measure of DNA content in the cell nuclei.

SMILES: O=c1[nH]cnc2c1ncn2[C@@H]1O[C@H](CO)[C@@H](O)[C@H]1O [0.1% inosine, hypoxanthine-9-D-ribofuranoside]
- number of normal lymphocytes per well (normal human lymphocytes; 24 hours incubation): 26 ± 4 × 10^4 cells
- number of normal lymphocytes per well (normal human lymphocytes; 48 hours incubation): 78 ± 7 × 10^4 cells
- number of normal lymphocytes per well (normal human lymphocytes; 72 hours incubation): 141 ± 12 × 10^4 cells
- number of normal lymphocytes per well (normal human lymphocytes; 96 hours incubation): 216 ± 16 × 10^4 cells
- number of REF cells (M ± m) ([1]; 0 hours of incubation): 811 ± 10 × 10^3 cells
- number of REF cells (M ± m) ([1]; 24 hours of incubation): 1426 ± 24 × 10^3 cells
- number of REF cells (M ± m) ([1]; 48 hours of incubation): 2642 ± 25 × 10^3 cells
- number of REF cells (M ± m) ([1]; 72 hours of incubation): 5034 ± 128 × 10^3 cells
- number of clones of e-ras cells (M ± m) ([2]; 0 hours of incubation): 292 ± 11
- number of clones of e-ras cells (M ± m) ([2]; 24 hours of incubation): 290 ± 8
- number of clones of e-ras cells (M ± m) ([2]; 48 hours of incubation): 269 ± 8
- number of clones of e-ras cells (M ± m) ([2]; 72 hours of incubation): 243 ± 8
- number of REF cells after UV-irradiation (M ± m) ([3]; 0 hours): 811 ± 10 × 10^3 cells
- number of REF cells after UV-irradiation (M ± m) ([3]; 24 hours): 426 ± 24 × 10^3 cells
- number of REF cells after UV-irradiation (M ± m) ([3]; 48 hours): 262 ± 22 × 10^3 cells
- number of REF cells after UV-irradiation (M ± m) ([3]; 72 hours): 234 ± 28 × 10^3 cells
- number of clones of e-ras cells after UV-irradiation (M ± m) ([4]; 0 hours): 292 ± 11
- number of clones of e-ras cells after UV-irradiation (M ± m) ([4]; 24 hours): 190 ± 8
- number of clones of e-ras cells after UV-irradiation (M ± m) ([4]; 48 hours): 129 ± 8
- number of clones of e-ras cells after UV-irradiation (M ± m) ([4]; 72 hours): 93 ± 8
- Accumulation of ascitic (weight gain, %) (leukemia P388 cells [5]; number of injection 0): 0.5 ± 0.2%
- Accumulation of ascitic (weight gain, %) (leukemia P388 cells [5]; number of injection 3): 3.9 ± 0.4%
- Accumulation of ascitic (weight gain, %) (leukemia P388 cells [5]; number of injection 7): 16.6 ± 2.6%
- Mean survival time (leukemia P388 cells [5]; mice inoculated with leukemia P388 cells): 21.8 ± 0.6
- Accumulation of ascitic (weight gain, %) (leukemia L1210 cells [6]; number of injection 0): 0.56 ± 0.2%
- Accumulation of ascitic (weight gain, %) (leukemia L1210 cells [6]; number of injection 3): 7.9 ± 0.4%
- Accumulation of ascitic (weight gain, %) (leukemia L1210 cells [6]; number of injection 7): 26.6 ± 2.4%
- Mean survival time (leukemia L1210 cells [6]; mice inoculated with leukemia L1210 cells): 9.8 ± 0.6
- Accumulation of ascitic (weight gain, %) ([7]; number of injection 0): 0.8 ± 0.2%
- Accumulation of ascitic (weight gain, %) ([7]; number of injection 3): 11.9 ± 0.2%
- Accumulation of ascitic (weight gain, %) ([7]; number of injection 7): 26.8 ± 2.1%
- Mean survival time ([7]; mice inoculated with Erlich adenocarcinoma cells): 10.1 ± 0.6
- Accumulation of ascitic fluid (weight gain) (leukemia P388 cells [8]; 0 injections): 0.58 ± 0.13%
- Concentration in serum: IFNα (leukemia P388 cells [8]; 0 injections): 81.4 ± 6.13 pg/mL
- Concentration in serum: IL-1 (leukemia P388 cells [8]; 0 injections): 36.7 ± 5.12 pg/mL
- Concentration in serum: IL-2 (leukemia P388 cells [8]; 0 injections): 16.50 ± 1.09 pg/mL
- Concentration in serum: IL-6 (leukemia P388 cells [8]; 0 injections): 115.0 ± 12.5 pg/mL
- Concentration in serum: TNFα (leukemia P388 cells [8]; 0 injections): 122.0 ± 10.0 pg/mL
- Accumulation of ascitic fluid (weight gain) (leukemia P388 cells [8]; 3 daily injections): 6.8 ± 0.8%
- Concentration in serum: IFNα (leukemia P388 cells [8]; 3 daily injections): 105. ± 11.3 pg/mL
- Concentration in serum: IL-1 (leukemia P388 cells [8]; 3 daily injections): 48.2 ± 7.13 pg/mL
- Concentration in serum: IL-2 (leukemia P388 cells [8]; 3 daily injections): 20.19 ± 1.54 pg/mL
- Concentration in serum: IL-6 (leukemia P388 cells [8]; 3 daily injections): 90.0 ± 7.11 pg/mL
- Concentration in serum: TNFα (leukemia P388 cells [8]; 3 daily injections): 96.5 ± 8.7 pg/mL
- Accumulation of ascitic fluid (weight gain) (leukemia P388 cells [8]; 7 daily injections): 25.0 ± 2.22%
- Concentration in serum: IFNα (leukemia P388 cells [8]; 7 daily injections): 184. ± 16.1 pg/mL
- Concentration in serum: IL-1 (leukemia P388 cells [8]; 7 daily injections): 31.0 ± 5.12 pg/mL
- Concentration in serum: IL-2 (leukemia P388 cells [8]; 7 daily injections): 13.40 ± 1.68 pg/mL
- Concentration in serum: IL-6 (leukemia P388 cells [8]; 7 daily injections): 129.0 ± 10.4 pg/mL
- Concentration in serum: TNFα (leukemia P388 cells [8]; 7 daily injections): 144.8 ± 12.9 pg/mL
- Mean survival time (leukemia P388 cells [8]; mice inoculated with leukemia P388 cells, daily injections till day 14 or death): 9.8 ± 0.21
- Accumulation of ascitic fluid (weight gain) (leukemia L1210 cells [9]; 0 injections): 0.61%
- Concentration in serum: IFNα (leukemia L1210 cells [9]; 0 injections): 117.3 pg/mL
- Concentration in serum: IL-1 (leukemia L1210 cells [9]; 0 injections): 41.0 pg/mL
- Concentration in serum: IL-2 (leukemia L1210 cells [9]; 0 injections): 17.80 pg/mL
- Concentration in serum: IL-6 (leukemia L1210 cells [9]; 0 injections): 108. pg/mL
- Concentration in serum: TNFα (leukemia L1210 cells [9]; 0 injections): 104.3 pg/mL
- Accumulation of ascitic fluid (weight gain) (leukemia L1210 cells [9]; 3 daily injections): 7.02%
- Concentration in serum: IFNα (leukemia L1210 cells [9]; 3 daily injections): 160.0 pg/mL
- Concentration in serum: IL-1 (leukemia L1210 cells [9]; 3 daily injections): 55.6 pg/mL
- Concentration in serum: IL-2 (leukemia L1210 cells [9]; 3 daily injections): 22.3 pg/mL
- Concentration in serum: IL-6 (leukemia L1210 cells [9]; 3 daily injections): 91.0 pg/mL
- Concentration in serum: TNFα (leukemia L1210 cells [9]; 3 daily injections): 130.0 pg/mL
- Accumulation of ascitic fluid (weight gain) (leukemia L1210 cells [9]; 7 daily injections): 26.30%
- Concentration in serum: IFNα (leukemia L1210 cells [9]; 7 daily injections): 205. pg/mL
- Concentration in serum: IL-1 (leukemia L1210 cells [9]; 7 daily injections): 36.40 pg/mL
- Concentration in serum: IL-2 (leukemia L1210 cells [9]; 7 daily injections): 14.6 pg/mL
- Concentration in serum: IL-6 (leukemia L1210 cells [9]; 7 daily injections): 119. pg/mL
- Concentration in serum: TNFα (leukemia L1210 cells [9]; 7 daily injections): 157.0 pg/mL
- Mean survival time (leukemia L1210 cells [9]; mice inoculated with leukemia L1210 cells, daily injections till day 14 or death): 9.61 ± 0.18
- number of HL-60 cells per well (HL-60 cells; 24 hours incubation): 96 ± 8 × 10^4 cells
- number of HL-60 cells per well (HL-60 cells; 48 hours incubation): 152 ± 8 × 10^4 cells
- number of HL-60 cells per well (HL-60 cells; 72 hours incubation): 312 ± 21 × 10^4 cells
- number of HL-60 cells per well (HL-60 cells; 96 hours incubation): 527 ± 18 × 10^4 cells
